Measurements taken from ChEMBL document CHEMBL1201862, “PubChem BioAssay data set” (2004).
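Exposure lasted 48 hours, with cells grown in 96-well plates and compounds tested at five concentrations. At the GI50, growth is halved.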 Calls of active or inactive are those of the source. Cut-off read from the data, not from the text of the source: active = GI50 up to about 1.1 µM and inactive = higher.

Experiments:
Experiment in all cases: DTP human tumour cell line panel, 48 h
[1] = system: HOP-62
[2] = system: OVCAR-8
[3] = system: NCI-H522
[4] = system: RPMI-8226
[5] = system: DU-145
[6] = system: SNB-19
[7] = system: MDA-N
[8] = system: A549
[9] = system: K562
[10] = system: TK-10
[11] = system: U-251
[12] = system: SK-MEL-28
[13] = system: 786-0
[14] = system: PC-3
[15] = system: SNB-75
[16] = system: SN12C
[17] = system: MDA-MB-231
[18] = system: OVCAR-4
[19] = system: HCC 2998
[20] = system: SK-OV-3

Compound: Cc1cc(C)n(C2OC(CO)C(O)C(O)C2O)c(=S)c1C#N (stereo unspecified)
- GI50 [1]: > 100 µM (inactive)
- GI50 [2]: > 100 µM (inactive)
- GI50 [3]: > 100 µM (inactive)
- GI50 [4]: > 100 µM (inactive)
- GI50 [5]: > 100 µM (inactive)
- GI50 [6]: > 100 µM (inactive)
- GI50 [7]: > 100 µM (inactive)
- GI50 [8]: > 100 µM (inactive)
- GI50 [9]: > 10 µM (inactive)
- GI50 [10]: > 100 µM (inactive)
- GI50 [11]: > 100 µM (inactive)
- GI50 [12]: > 100 µM (inactive)
- GI50 [13]: > 100 µM (inactive)
- GI50 [14]: > 100 µM (inactive)
- GI50 [15]: > 100 µM (inactive)
- GI50 [16]: > 100 µM (inactive)
- GI50 [17]: > 100 µM (inactive)
- GI50 [18]: > 100 µM (inactive)
- GI50 [19]: > 100 µM (inactive)

Compound: O=C1CC2OCC=C3CN4CCC5(C(=O)O)C(N1)C2C3CC45 (stereo unspecified)
- GI50 [1]: > 100 µM (inactive)
- GI50 [2]: > 100 µM (inactive)
- GI50 [3]: > 100 µM (inactive)
- GI50 [5]: > 100 µM (inactive)
- GI50 [6]: > 100 µM (inactive)
- GI50 [20]: > 100 µM (inactive)
- GI50 [7]: > 100 µM (inactive)
- GI50 [8]: > 100 µM (inactive)
- GI50 [9]: > 100 µM (inactive)
- GI50 [10]: > 100 µM (inactive)
- GI50 [11]: > 100 µM (inactive)
- GI50 [12]: > 100 µM (inactive)
- GI50 [13]: > 100 µM (inactive)
- GI50 [14]: > 100 µM (inactive)
- GI50 [15]: > 100 µM (inactive)
- GI50 [16]: > 100 µM (inactive)
- GI50 [17]: > 100 µM (inactive)
- GI50 [18]: > 100 µM (inactive)
- GI50 [19]: > 100 µM (inactive)

Compound: COc1ccc(Nc2nc3ccc(C(F)(F)F)cc3nc2C(=O)O)cc1OC
- GI50 [1]: 25.2 µM (inactive)
- GI50 [2]: 23.2 µM (inactive)
- GI50 [3]: 25.8 µM (inactive)
- GI50 [5]: 28.6 µM (inactive)
- GI50 [6]: 23.6 µM (inactive)
- GI50 [7]: 34.7 µM (inactive)
- GI50 [9]: 29 µM (inactive)
- GI50 [11]: 27.4 µM (inactive)
- GI50 [12]: 41.6 µM (inactive)
- GI50 [13]: 35 µM (inactive)
- GI50 [14]: 26.5 µM (inactive)
- GI50 [15]: 35.8 µM (inactive)
- GI50 [16]: 34.9 µM (inactive)
- GI50 [17]: 37.9 µM (inactive)
- GI50 [18]: 40.6 µM (inactive)
- GI50 [19]: 18.7 µM (inactive)

Compound: Cn1ncc(NCCn2cnc3c2c(=O)n(C)c(=O)n3C)c(Cl)c1=O
- GI50 [1]: > 100 µM (inactive)
- GI50 [2]: > 100 µM (inactive)
- GI50 [3]: > 100 µM (inactive)
- GI50 [4]: > 100 µM (inactive)
- GI50 [5]: > 100 µM (inactive)
- GI50 [6]: > 100 µM (inactive)
- GI50 [20]: > 100 µM (inactive)
- GI50 [7]: > 100 µM (inactive)
- GI50 [8]: > 100 µM (inactive)
- GI50 [9]: > 100 µM (inactive)
- GI50 [10]: > 100 µM (inactive)
- GI50 [11]: > 100 µM (inactive)
- GI50 [12]: > 100 µM (inactive)
- GI50 [13]: > 100 µM (inactive)
- GI50 [14]: > 100 µM (inactive)
- GI50 [16]: > 100 µM (inactive)
- GI50 [17]: > 100 µM (inactive)
- GI50 [18]: > 100 µM (inactive)
- GI50 [19]: > 100 µM (inactive)

Compound: CCCC(=O)N1CCN(c2ccc3c(c2)OC(C)O3)CC1 (stereo unspecified)
- GI50 [1]: > 100 µM (inactive)
- GI50 [2]: > 100 µM (inactive)
- GI50 [3]: > 100 µM (inactive)
- GI50 [5]: > 100 µM (inactive)
- GI50 [6]: > 100 µM (inactive)
- GI50 [20]: > 100 µM (inactive)
- GI50 [7]: > 100 µM (inactive)
- GI50 [8]: > 100 µM (inactive)
- GI50 [9]: > 100 µM (inactive)
- GI50 [10]: > 100 µM (inactive)
- GI50 [11]: > 100 µM (inactive)
- GI50 [12]: > 100 µM (inactive)
- GI50 [13]: > 100 µM (inactive)
- GI50 [14]: > 100 µM (inactive)
- GI50 [15]: 15.4 µM (inactive)
- GI50 [16]: > 100 µM (inactive)
- GI50 [17]: > 100 µM (inactive)
- GI50 [18]: > 100 µM (inactive)
- GI50 [19]: > 100 µM (inactive)

Compound: CCOC(=O)Oc1ccc2c(c1)c(=O)c1c(NCCN(CC)CC)ccc3nnn2c31
- GI50 [1]: 1.24 µM (inactive)
- GI50 [2]: 0.577 µM (active)
- GI50 [3]: 0.69 µM (active)
- GI50 [4]: 0.908 µM (active)
- GI50 [5]: 1.89 µM (inactive)
- GI50 [6]: 1.21 µM (inactive)
- GI50 [20]: 8 µM (inactive)
- GI50 [7]: 2.94 µM (inactive)
- GI50 [8]: 0.2 µM (active)
- GI50 [9]: 0.948 µM (active)
- GI50 [10]: 3.19 µM (inactive)
- GI50 [11]: 1.73 µM (inactive)
- GI50 [12]: 11.7 µM (inactive)
- GI50 [13]: 0.488 µM (active)
- GI50 [14]: 2.19 µM (inactive)
- GI50 [16]: 0.809 µM (active)
- GI50 [17]: 2.48 µM (inactive)
- GI50 [18]: 2.55 µM (inactive)
- GI50 [19]: 2.94 µM (inactive)
